Data from a melting point compilation (Tetko et al.; mined from patent text by program, amines drawn as free bases though some values may be those of a salt).

`O=C(NC(=S)Nc1ccc2nsnc2c1Cl)c1ccccc1` gave a melting point of 220 to 222 °C. In the case of `CN(C)c1ccc([N+](=O)[O-])c(C(=O)NCC2CCN(C(c3ccccc3)c3ccccc3)CC2)c1`, the melting point is reported as 200 °C. With `Nc1ccc2ccc(-c3ccc(Cl)cc3)nc2n1` the melting point was 130 °C. Molecule `CCN(CC)c1nc2ccccc2n2cnnc12` has a melting point of 117 to 119 °C. For `COC(=O)Cc1ccc2c(c1)CC(NS(=O)(=O)c1ccc(Cl)cc1)C2` (centres undefined), the melting point was 80 to 82 °C. In the case of `CN(C)c1ccc(CNC(=O)c2ccccc2O)cc1`, the melting point is reported as 129 to 132 °C. `CN(Cc1ccc(NC(=O)C2=Cc3cc(OCc4cccnc4)ccc3S(=O)(=O)CC2)cc1)C1CCOCC1` gave a melting point of 225 to 229 °C. `COc1ccccc1Oc1c(Cl)nc(-c2cccc(OCc3ccccc3)c2)nc1NS(=O)(=O)c1ccc(C)cn1` gave a melting point of 176 to 180 °C. Molecule `N#CC(C(N)=O)c1ccccc1[N+](=O)[O-]` (centres undefined) has a melting point of 172 to 174 °C. For `CNc1nc(-n2cc(C(=O)O)c(=O)c3cc(F)c(F)c(Cl)c32)c(F)cc1F`, the melting point was 236 to 242 °C. Work on `CC(=O)OI(OC(C)=O)c1ccc(-c2ccc(Cl)cc2)cc1` yielded a melting point of 147 to 150 °C. In the case of `O=Cc1c(-c2cccc(C(F)(F)F)c2)sc2ccccc12`, the melting point is reported as 103 to 104 °C. Molecule `Cc1cc(-c2ccc(S(C)(=O)=O)cc2)n(-c2ccc(-c3ccoc3)cc2)c1` has a melting point of 154 to 156 °C. `O=Cc1cc2ccsc2c2ccccc12` gave a melting point of 96 to 96.5 °C. For `O=C(O)c1c(-c2ccccc2)c2ccccc2n1Cc1ccc(OCc2ccccc2)cc1`, the melting point was 193 to 194 °C. Molecule `Cc1oc(-c2ccc(C(F)(F)F)cc2)nc1-c1ccc(-c2cc(Br)c(OC(Cc3ccccc3)C(=O)O)c(Br)c2)cc1` (centres undefined) has a melting point of 241 to 243 °C. For `Cc1ccc2c(Br)csc2c1`, the melting point was 51 to 53 °C. `COc1ccc(Cl)cc1S(=O)(=O)N1C2CCC1CN(CC(=O)Nc1ccccc1C)C2` gave a melting point of 180 to 181 °C. `c1ccc(COc2cccc(OCc3ccccc3)n2)cc1` gave a melting point of 74 °C. `Cc1cccc(-c2sc(N)nc2-c2ccnc(-c3ccc(OCC(N)=O)cc3)c2)n1` gave a melting point of 191 °C. `CN(c1cccs1)c1n[nH]c2ncnc(Nc3cccc(Cl)c3)c12` gave a melting point of 228 to 229 °C. Molecule `Cc1ccc(-c2nc(NC(=O)OCC[Si](C)(C)C)cs2)cc1` has a melting point of 108 to 109 °C. `COc1cc(N)ccc1S(=O)(=O)Nc1ccc(C)cc1` gave a melting point of 158 to 160 °C. In the case of `CN1C(=O)Cn2c(nn(Cc3ccccc3)c2=O)-c2cc(Cl)ccc21`, the melting point is reported as 120 to 122 °C. `COc1ccc2c(c1)CCC([C@@H]1CC[C@H](O)[C@@]1(C)CC(=O)O)C2` (some centres undefined) showed a melting point of 142 °C. For `CCCCS(=O)c1ccc(-n2[nH]c3ccccc3c2=O)cc1` (centres undefined), the melting point was 168 to 169 °C. Work on `NP(N)(=S)NC1CCCCC1` yielded a melting point of 148 to 150 °C. `O=Cc1ccc(-c2ccc(O)cc2)c2ccsc12` showed a melting point of 203 to 204 °C. Work on `CCOC(=O)C(=O)Nc1nc(C)c(C)s1` yielded a melting point of 86 to 88 °C. `COC(=O)CONC(=O)c1c(Cl)ccc(Cl)c1OC` gave a melting point of 102 to 105 °C. In the case of `CCC(=O)NCCc1c[nH]c2ccc(OCc3ccccc3)cc12`, the melting point is reported as 110 to 112 °C. Work on `O=C1c2ccccc2C(=O)C1c1cccc(O)c1` yielded a melting point of 139 to 141 °C. `CC(C)c1nc(CN(C)C(=O)N[C@@H](C)C(=O)N[C@@H](Cc2ccccc2)C[C@H](O)[C@H](Cc2ccccc2)NC(=O)OCc2cncs2)cs1` showed a melting point of 56 to 58 °C. With `Cc1cc(C#N)sc1-c1ccc2c(c1)C(C)(C)OC(C)N2` (centres undefined) the melting point was 145 to 146 °C. `CC1(C)Oc2ccc(C#N)cc2C(CC(=O)N2CCCCC2)C1O` (centres undefined) gave a melting point of 160 to 161 °C. In the case of `COC(=O)C1N2C(=O)C(N3C(=O)c4ccccc4C3=O)C2SCC1(C)O` (centres undefined), the melting point is reported as 203 °C. `CCCCCC(=O)NC(C)(C)C(=O)O` gave a melting point of 141 to 143 °C. `O=C(CCCl)c1ccc2c(c1)CCC2` showed a melting point of 63.5 to 65.1 °C. Work on `CC1(C)Sc2oc(S(N)(=O)=O)cc2C1=O` yielded a melting point of 167 to 169 °C. `COc1ccc(S(=O)(=O)N2C(=O)C(O[Si](C)(C)C)(c3ccccc3OC(F)(F)F)c3cc(Cl)ccc32)c(OC)c1` (centres undefined) gave a melting point of 181 °C. For `Cc1ccc(-c2ccccc2C(=O)Nc2ccc(C(=O)N3C[C@@H]4CCCN4C(=S)c4ccccc43)cc2)cc1`, the melting point was 140 to 145 °C. In the case of `OC(COCc1cccnc1)c1ccc2occc2c1` (centres undefined), the melting point is reported as 85 to 86 °C. For `COc1cc2c(cc1OC)-c1cc(Nc3c(C)cccc3C)nc(=O)n1CC2`, the melting point was 297 to 299 °C. With `CC(=O)OCCN(C)CC#CC1=Cc2ccccc2Sc2ccc(Cl)cc21` the melting point was 48 to 51 °C. Work on `CCc1nc2cc(Cl)c(Cl)nc2n1-c1ccc(CCNC(=O)NS(=O)(=O)c2ccc(C)cc2)cc1` yielded a melting point of 188 to 189 °C. Molecule `COc1ccc(CSc2cccc(Cl)c2CN(C)C)cc1` has a melting point of 101 to 104 °C. `CCOC(=O)C(C(=O)OCC)c1ccc(OCC2=NCCN2)cc1` showed a melting point of 72 to 110 °C. Molecule `C=C(C)C(=O)OC(c1ccccc1)(c1ccccc1)c1ccncc1` has a melting point of 98.5 to 99.5 °C. With `CCCCCCCCS(=O)(=O)NCCC(=O)O` the melting point was 122 °C. Molecule `CCOc1ccc2cc(-c3nc(C(C)(C)C)[nH]c3-c3ccncc3)ccc2c1` has a melting point of 258 to 259 °C. `CC1(C)CN(Cc2ccccc2[N+](=O)[O-])C(=O)S1` showed a melting point of 128 to 129 °C. `COc1cccc(-c2n[nH]c(-c3ccccc3COC(C)=O)n2)c1` showed a melting point of 83 to 87 °C. Molecule `CCN1CCN(CC(=O)NC2(c3cc4ccccc4o3)C(=O)Nc3cc(Cl)cc(Cl)c32)CC1` (single isomer, unassigned; (+)) has a melting point of 192 to 196 °C. Molecule `O=C(N[C@H]1CC[C@H](CCN2CCN(c3nccc4c3CCO4)CC2)CC1)C1(O)CC1` has a melting point of 174 °C. `CC(C)c1cccc2c1O[C@@H](C(C)C)C(=S)N2CC(=O)O` gave a melting point of 109 to 110 °C. `O=[N+]([O-])c1cccc(CN2CCC(c3cc(-c4ccc(Cl)cc4)[nH]n3)CC2)c1` showed a melting point of 174 to 176 °C. `CN1C(=O)C(Cl)=C(C#N)C1=O` showed a melting point of 141 to 143 °C. With `CCCCCc1cc2c(nc(O)n2CC2CCOCC2)c(N)n1` the melting point was > 250 °C. `O=C(O)c1cc(C(=O)O)cc(P(=O)(c2ccccc2)c2ccccc2)c1` showed a melting point of 283 to 286 °C. Molecule `CCCCNC(=O)C1(c2ccccc2)CCN(C)CC1` has a melting point of 73 to 76.5 °C. For `COc1ccc(C2(O)CCC3CN(Cc4ccccc4)CCC3C2)cc1` (centres undefined), the melting point was 38 to 40 °C. Molecule `COC1(c2cc(F)cc(Sc3ccc(C(C)=O)cn3)c2)CCOCC1` has a melting point of 73 to 74 °C. In the case of `COc1cc2c(Nc3ccc(Cl)cc3F)ncnc2cc1OCCn1ccccc1=O`, the melting point is reported as 209 to 211 °C. `CCCc1nc2c(N)nc3cccnc3c2n1CCCCN(OC)C(=O)NC(C)C` gave a melting point of 161 to 162 °C. In the case of `CCOC(=O)C1=C(CO)NC(CO)=C(C(=O)OCC)C1c1ccccc1Cl`, the melting point is reported as 190 to 191 °C. `Nc1cc(F)c(C2CCSCC2)c(F)c1` gave a melting point of 118 to 119 °C. Work on `COc1ccc(Sc2nn(-c3ccc(OC)cc3)c(=O)c(C#N)c2C)cc1` yielded a melting point of 188 to 190 °C. Molecule `CCCNc1nc(-c2ccc(OC)c(OC)c2)nc2sc(C#N)c(C)c12` has a melting point of 179 to 181 °C. Work on `C[C@H]1CN(c2c(F)cc3c(=O)c(C(=O)O)cn(CCF)c3c2F)C[C@H]1NC(=O)OC(C)(C)C` (relative stereo) yielded a melting point of 217 to 219 °C. In the case of `COc1ccccc1NC(=O)Nc1cccc(-n2c(=O)c(CCC(=O)ON3C(=O)CCC3=O)nc3cccnc32)c1`, the melting point is reported as 235 to 237 °C. `COC(=O)C1=C(C)NC(C)=C(C(=O)OCCN2CCN(C(c3ccc(F)cc3)c3ccc(F)cc3)CC2)C1c1cccc(Cl)c1Cl` (centres undefined) gave a melting point of 90 to 93 °C. Molecule `O=c1[nH]c2cc(Cl)cc(Cl)c2c(=O)n1CCc1ccccc1` has a melting point of 230 to 232 °C. `CC(C)Oc1cc(CC(=O)O)c(F)cc1Cl` showed a melting point of 57 to 58 °C. `O=C1OC2(c3ccccc3)CCCN2c2ccccc21` (centres undefined) showed a melting point of 152 °C. For `COc1cc2c(C3=CCN(C[C@H](O)COc4cccc5[nH]ccc45)CC3)c[nH]c2cc1Cl`, the melting point was 115 to 120 °C. Work on `Cc1ccc(C(=S)Oc2ccc(C(=O)O)cc2)cc1C12CC3CC(CC(C3)C1)C2` yielded a melting point of 276 to 277 °C. `CN(C)c1cccc([N+](=O)[O-])c1C(=O)NC1CCN(C(c2ccccc2)c2ccccc2)CC1` gave a melting point of 122 °C. For `CC(C)Nc1cccnc1N1CCN(C(=O)c2ccc(C(=O)NCCOCCO)cc2)CC1`, the melting point was 116 °C. For `Cc1cc(C(C)(C)C)c(O)c(C)c1CSP(=S)(C1CCCCC1)C1CCCCC1`, the melting point was 113 to 116 °C. In the case of `C#Cc1cccc(-c2nccc3nc(N)nn23)c1`, the melting point is reported as 170 to 172 °C. `NCC1=CC(c2ccccc2)Cc2c(O)cccc21` (centres undefined) showed a melting point of 102 to 104 °C. In the case of `CCOc1ccc(-c2c(O)c3ccc(Cl)cc3[nH]c2=O)cc1`, the melting point is reported as > 320 °C. For `Cc1cc2ccc(Cl)cc2[nH]1`, the melting point was 120 to 122 °C. `CCN(c1ccc(Br)cc1)c1nc(=O)c2cccnc2s1` gave a melting point of 166 to 167 °C. Molecule `O=C1OC(CCCCN2CCN(c3ccccc3)CC2)CN1c1ccccc1` (centres undefined) has a melting point of 83 to 85 °C. For `COCCNc1cccc(C(N)=O)c1`, the melting point was 89 to 91 °C. Work on `CN1CCCCC1CCc1ccccc1NC(=O)c1ccc(C(C)(C)C)cc1` (centres undefined) yielded a melting point of 101 to 120 °C. With `N#Cc1c(N2CCCCC2)cc(-c2ccccc2)c2c1Cc1ccccc1-2` the melting point was 140 to 141 °C. In the case of `CN1C(=O)Cn2cc(C(=O)NCc3ccc(Cl)cc3)c(=O)c3cc(I)cc1c32`, the melting point is reported as 278 to 283 °C. Molecule `O[C@@H]1COC[C@H]1Oc1nc(N2CCNCC2)nc2ccccc12` (relative stereo) has a melting point of 148 to 154 °C. Molecule `NC(=S)c1cccc2c1CCCC2=O` has a melting point of 200 to 205 °C. `Cc1cc(-c2nncc3c(C(C)(C)C)c(O)nn23)no1` showed a melting point of 275 to 278 °C. In the case of `OC(Cc1ccc(Cl)cc1Cl)(Cn1cncn1)c1ccc(-c2ccccc2)cc1` (centres undefined), the melting point is reported as 124 °C. Molecule `Cc1oc(-c2ccccc2)nc1COc1ccc(COc2cc(CCC(=O)O)n(-c3ccccc3)n2)cc1` has a melting point of 154 to 155 °C. `Cc1nccn1-c1nc(-c2ccc(Cl)cc2)c(CCCN2C(=O)CN(C)C2=O)o1` gave a melting point of 105 to 106 °C. In the case of `CCn1c(=N)c(-c2cc(OC)cc(OC)c2)cc2cnc(SC)nc21`, the melting point is reported as 93 to 95 °C. Work on `Cn1cc(Br)nc(Nc2cnn(C3CC3)c2)c1=O` yielded a melting point of 228 to 230 °C. Molecule `Cc1nc(Cl)c([N+](=O)[O-])c(NC(C)C)n1` has a melting point of 77 to 79 °C. `COc1nc(NC(=O)NS(=O)(=O)Oc2ccccc2-c2ccon2)nc(OC)n1` gave a melting point of 166 to 168 °C.
